Assay results as given in ChEMBL document CHEMBL1201862, “PubChem BioAssay data set” (2004).
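Each compound was tested at five concentrations against cells in 96-well plates for 48 hours. At the GI50, growth is halved.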 Active and inactive are the calls of the source. Rule as the data show it: active = GI50 up to about 1.1 µM and inactive = higher.

Key:
Assay in all cases: DTP human tumour cell line panel, 48 h
[1] = test system: 786-0
[2] = test system: A498
[3] = test system: A549
[4] = test system: ACHN
[5] = test system: BT-549
[6] = test system: CAKI-1
[7] = test system: CCRF-CEM
[8] = test system: COLO 205
[9] = test system: DU-145
[10] = test system: EKVX
[11] = test system: HCC 2998
[12] = test system: HCT-116
[13] = test system: HCT-15
[14] = test system: HL-60
[15] = test system: HOP-62
[16] = test system: HOP-92
[17] = test system: HT-29
[18] = test system: Hs-578T
[19] = test system: IGROV-1
[20] = test system: K562
[21] = test system: KM12
[22] = test system: M14
[23] = test system: MCF7
[24] = test system: MDA-MB-231
[25] = test system: MDA-MB-435
[26] = test system: MDA-N
[27] = test system: MOLT-4
[28] = test system: Malme-3M
[29] = test system: NCI-H226
[30] = test system: NCI-H23
[31] = test system: NCI-H460
[32] = test system: NCI-H522
[33] = test system: NCI/ADR-RES
[34] = test system: OVCAR-3
[35] = test system: OVCAR-4
[36] = test system: OVCAR-5
[37] = test system: OVCAR-8
[38] = test system: PC-3
[39] = test system: RPMI-8226
[40] = test system: RXF 393
[41] = test system: SF-268
[42] = test system: SF-295
[43] = test system: SF-539
[44] = test system: SK-MEL-2
[45] = test system: SK-MEL-5
[46] = test system: SK-OV-3
[47] = test system: SN12C
[48] = test system: SNB-19
[49] = test system: SR
[50] = test system: SW-620
[51] = test system: TK-10
[52] = test system: U-251
[53] = test system: UACC-257
[54] = test system: UACC-62
[55] = test system: UO-31

SMILES: CC[N+]1(C)CCC(O)(c2ccc(C)cc2)C(C(=O)c2ccc(C)cc2)C1 (stereo not given)
- GI50 [1]: 20.1 µM (inactive)
- GI50 [2]: > 100 µM (inactive)
- GI50 [3]: > 100 µM (inactive)
- GI50 [4]: 23.3 µM (inactive)
- GI50 [5]: > 100 µM (inactive)
- GI50 [6]: 23.9 µM (inactive)
- GI50 [7]: 22 µM (inactive)
- GI50 [8]: 25.5 µM (inactive)
- GI50 [9]: > 100 µM (inactive)
- GI50 [10]: > 100 µM (inactive)
- GI50 [11]: > 100 µM (inactive)
- GI50 [12]: 51.8 µM (inactive)
- GI50 [13]: 21.7 µM
- GI50 [14]: 56.8 µM (inactive)
- GI50 [15]: > 100 µM (inactive)
- GI50 [16]: 23 µM (inactive)
- GI50 [17]: 42.7 µM (inactive)
- GI50 [18]: > 100 µM (inactive)
- GI50 [19]: > 100 µM (inactive)
- GI50 [20]: 19.6 µM (inactive)
- GI50 [21]: > 100 µM (inactive)
- GI50 [22]: 44.8 µM (inactive)
- GI50 [23]: 16.4 µM (inactive)
- GI50 [24]: 26.7 µM (inactive)
- GI50 [25]: 69.2 µM (inactive)
- GI50 [26]: > 100 µM (inactive)
- GI50 [27]: 23.6 µM (inactive)
- GI50 [28]: 26.1 µM (inactive)
- GI50 [29]: > 100 µM (inactive)
- GI50 [30]: > 100 µM (inactive)
- GI50 [31]: > 100 µM (inactive)
- GI50 [32]: 23.7 µM (inactive)
- GI50 [33]: > 100 µM (inactive)
- GI50 [34]: 21.7 µM (inactive)
- GI50 [35]: 34.4 µM (inactive)
- GI50 [36]: 31 µM (inactive)
- GI50 [37]: 34.2 µM (inactive)
- GI50 [38]: > 100 µM (inactive)
- GI50 [39]: 10.9 µM (inactive)
- GI50 [40]: 35.4 µM (inactive)
- GI50 [41]: 34.8 µM (inactive)
- GI50 [42]: 37.4 µM (inactive)
- GI50 [43]: 66.8 µM (inactive)
- GI50 [44]: > 100 µM (inactive)
- GI50 [45]: > 100 µM (inactive)
- GI50 [46]: > 100 µM (inactive)
- GI50 [47]: > 100 µM (inactive)
- GI50 [48]: > 100 µM (inactive)
- GI50 [49]: 16.2 µM (inactive)
- GI50 [50]: 20.6 µM (inactive)
- GI50 [51]: 20.2 µM (inactive)
- GI50 [52]: > 100 µM (inactive)
- GI50 [53]: 62.5 µM (inactive)
- GI50 [54]: > 100 µM (inactive)
- GI50 [55]: > 100 µM (inactive)
